Experimental data taken from patent US12590106B2, “Spiromacrocyclic orexin 2 receptor agonists” (H. Lundbeck A/S, priority 2023, dated 2026).

Key:
human Ox2R = target: T1, human Ox2R (Homo sapiens, UniProt O43614); assay: Measurement of OX2R agonist activity (cell-based calcium release assay); conditions: hOx2R-CHO Flp-In cells, n≥2 tests; for EC50: intracellular calcium, read-out: EC50; for Emax / Emax (%): normalized to assay buffer (0%) and 10 μM Danavorexton (100%); for Emax: read-out: Emax (%)
T1 construct: The gene encoding hOx2R was subcloned into the expression plasmid pcDNA5/FRT/TO; expressed in transfected cells; host or cells: CHO Flp-In cells (pcDNA5/FRT/TO with pOG44 Flp recombinase vector, hygromycin B selection)
T1 sequence (O43614 1-444): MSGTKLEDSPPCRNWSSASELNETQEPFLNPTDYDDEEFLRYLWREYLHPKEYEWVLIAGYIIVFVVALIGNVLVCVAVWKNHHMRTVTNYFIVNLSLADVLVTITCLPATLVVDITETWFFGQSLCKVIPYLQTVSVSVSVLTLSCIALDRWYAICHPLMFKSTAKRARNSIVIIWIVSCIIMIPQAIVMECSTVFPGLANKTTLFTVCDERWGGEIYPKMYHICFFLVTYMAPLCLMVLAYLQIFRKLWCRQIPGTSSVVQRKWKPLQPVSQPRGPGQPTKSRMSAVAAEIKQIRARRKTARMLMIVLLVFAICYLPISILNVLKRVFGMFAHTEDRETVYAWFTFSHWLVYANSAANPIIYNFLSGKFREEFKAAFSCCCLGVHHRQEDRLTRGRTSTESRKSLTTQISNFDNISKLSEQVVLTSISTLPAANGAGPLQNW
Summary of the method: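 CHO Flp-In cells stably expressing human Ox2R, dye-loaded 1 h at 37 °C in HBSS/20 mM HEPES pH 7.4 with 2.5 mM probenecid and 10 mM CaCl2, then stimulated with compound.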

P-gp (MDR1) = target: T2, P-gp (MDR1) (Homo sapiens, UniProt P08183); assay: MDR1-MDCKII assay (bidirectional transport); type: in vitro ADME; conditions: MDCK-MDR1, pH 7.4, test compound 0.5 μM, MDR1-MDCKII monolayer; for efflux ratio at 0.5 μM: read-out: ER (efflux ratio); for Papp A→B at 0.5 μM: apical to basolateral
T2 construct: host or cells: MDCKII (canine kidney) cells transfected with human MDR1
Experimental: Bidirectional transport in MDCKII cells transfected with human MDR1 were assessed according to previously published methodology (Langthaler, K. et al. (2024). Fluids Barriers CNS, 21 (11): 1-15). In brief, cells obtained from the Netherlands Cancer Institute were maintained at 37° C. in α-MEM containing 10% FBS, 100 μg/mL penicillin-G, 100 μg/mL streptomycin, 1% non-essential amino acid under culture conditions of 5% CO2 and 95% relative humidity. Transport of test compound (0.5 μM, 0.4% DMSO final concentrations) across the cell monolayer was determined in triplicate on a single test occasion along with controls for low and high permeability (fenoterol and metoprolol, 2 μM) and P-gp efflux (digoxin, 10 μM). Each compound was loaded onto either the apical side (75 μL) or basolateral side (275 μL) with transport buffer (1% BSA in HBSS with 10 mM HEPES (pH 7.4)) on the opposing side of the cells (e.g. 50 μL or 250 μL on the apical or basolateral side). A sample (25 μL) from the donor compartment was taken 30 s after test compound is loaded onto the plate, resulting in a final incubation volume of 50 μL and 250 μL on apical and basolateral sides respectively. At the end of the incubation period, samples (75 μL) were taken from both sides. The donor samples (25 μL) were firstly diluted with transport buffer (50 μL) and then all samples were quenched in acetonitrile (125 μL) containing internal analytical standards. After centrifugation (20 min, 3220 g, 4° C.) the supernatants were analysed by LC-MS/MS. The apparent permeability coefficient (Papp) and efflux ratio (ER) were calculated using the equations below; where dCr/dt is the compound concentration in the receiver chamber as a function of time (μM/s); Vr is the solution volume in the receiver chamber; A is the surface area of the cell monolayer; C0 is the initial concentration in the donor compartment; and Papp A-B and Papp B-A refer to the apparent permeabilities in the respective directions. Compound permeability is classified as low, moderate, or high according to Papp value binning classifications: <1, 1 to 6 or >6×10^−6 cm/s, respectively. The ER is employed to classify compounds as unlikely, possible, or likely P-gp substrates when ER was: <1.5, 1.5 to <2 or >2, respectively.

T2 sequence (P08183 whole entry): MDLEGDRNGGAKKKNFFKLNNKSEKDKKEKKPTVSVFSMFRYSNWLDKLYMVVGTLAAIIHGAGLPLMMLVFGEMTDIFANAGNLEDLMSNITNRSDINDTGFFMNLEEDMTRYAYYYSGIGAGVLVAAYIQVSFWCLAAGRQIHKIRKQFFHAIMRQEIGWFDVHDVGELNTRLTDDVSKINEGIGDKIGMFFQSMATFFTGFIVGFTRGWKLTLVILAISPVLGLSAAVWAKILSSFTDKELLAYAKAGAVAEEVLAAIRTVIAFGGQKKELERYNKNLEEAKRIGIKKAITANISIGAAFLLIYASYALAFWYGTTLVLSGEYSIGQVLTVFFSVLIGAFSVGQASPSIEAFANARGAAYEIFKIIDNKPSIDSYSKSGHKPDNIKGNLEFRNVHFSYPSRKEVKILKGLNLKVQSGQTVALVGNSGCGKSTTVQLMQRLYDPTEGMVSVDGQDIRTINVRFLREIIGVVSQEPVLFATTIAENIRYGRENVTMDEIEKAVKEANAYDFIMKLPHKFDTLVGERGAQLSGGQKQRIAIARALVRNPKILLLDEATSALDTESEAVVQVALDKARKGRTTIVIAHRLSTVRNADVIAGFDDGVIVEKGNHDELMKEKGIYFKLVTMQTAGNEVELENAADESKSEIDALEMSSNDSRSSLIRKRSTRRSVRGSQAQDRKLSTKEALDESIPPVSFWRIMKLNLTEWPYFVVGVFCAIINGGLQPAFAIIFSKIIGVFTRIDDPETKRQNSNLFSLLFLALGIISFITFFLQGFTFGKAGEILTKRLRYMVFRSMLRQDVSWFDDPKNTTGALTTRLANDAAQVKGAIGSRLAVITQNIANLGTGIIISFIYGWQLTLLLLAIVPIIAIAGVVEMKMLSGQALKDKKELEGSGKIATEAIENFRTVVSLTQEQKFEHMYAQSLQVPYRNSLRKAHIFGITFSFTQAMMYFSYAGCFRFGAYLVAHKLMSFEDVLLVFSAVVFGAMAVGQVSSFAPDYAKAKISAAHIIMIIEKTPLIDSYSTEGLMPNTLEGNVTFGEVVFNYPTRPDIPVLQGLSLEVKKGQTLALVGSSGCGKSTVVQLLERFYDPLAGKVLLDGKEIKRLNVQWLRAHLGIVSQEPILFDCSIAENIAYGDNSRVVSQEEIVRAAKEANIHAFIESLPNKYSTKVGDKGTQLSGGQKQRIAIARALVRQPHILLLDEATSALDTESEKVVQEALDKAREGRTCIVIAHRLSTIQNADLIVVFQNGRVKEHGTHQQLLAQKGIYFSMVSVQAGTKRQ

**Q.** Which results are given for CS(=O)(=O)N[C@H]1CC[C@@]2(Cc3ccc(F)c(c3)-c3cccc(F)c3OCc3coc2n3)C1 [Example 8, N-[(1′S,14R)-6,19-difluorospiro[8,12-dioxa-21-azatetracyclo[14.3.1.110,13.02,7]henicosa-1(19),2,4,6,10,13(21),16(20),17-octaene-14,3′-cyclopentane]-1′-yl]methanesulfonamide]?
**A.** EC50 (human Ox2R): 0.064 nM; Emax (human Ox2R): 99%; efflux ratio at 0.5 μM (P-gp (MDR1)): 1.3; Papp A→B at 0.5 μM (P-gp (MDR1)): 11.5 ×10⁻⁶ cm/s

**Q.** Which EC50 (human Ox2R) does the source give for CS(=O)(=O)N[C@H]1CC[C@@]2(Cc3ccc(Cl)c(c3)-c3cccc(F)c3OCc3coc2n3)C1 [Example 16, N-[(1′S,14R)-19-chloro-6-fluoro-spiro[8,12-dioxa-21-azatetracyclo[14.3.1.110,13.02,7]henicosa-1(19),2,4,6,10,13(21),16(20),17-octaene-14,3′-cyclopentane]-1′-yl]methanesulfonamide] here?
**A.** 0.051 nM

**Q.** And the Emax (human Ox2R)?
**A.** 99%

**Q.** What about the efflux ratio at 0.5 μM (P-gp (MDR1)) of the same compound?
**A.** 1

**Q.** What about the Papp A→B at 0.5 μM (P-gp (MDR1)) of the same compound?
**A.** 9.31 ×10⁻⁶ cm/s

**Q.** What does the source list for CCS(=O)(=O)N[C@H]1CC[C@@]2(Cc3ccc(F)c(c3)-c3cccc(F)c3OCc3coc2n3)C1 [Example 21, N-[(1′S,14R)-6,19-difluorospiro[8,12-dioxa-21-azatetracyclo[14.3.1.110,13.02,7]henicosa-1(19),2,4,6,10,13(21),16(20),17-octaene-14,3′-cyclopentane]-1′-yl]ethanesulfonamide]?
**A.** EC50 (human Ox2R): 0.083 nM; Emax (human Ox2R): 100%; efflux ratio at 0.5 μM (P-gp (MDR1)): 1.4; Papp A→B at 0.5 μM (P-gp (MDR1)): 9.89 ×10⁻⁶ cm/s

**Q.** What does the source list for Cc1oc2nc1COc1c(F)cccc1-c1cc(ccc1F)C[C@@]21CC[C@H](NS(C)(=O)=O)C1 [Example 25, N-[(1′S,14R)-6,19-difluoro-11-methyl-spiro[8,12-dioxa-21-azatetracyclo[14.3.1.110,13.02,7]henicosa-1(19),2,4,6,10,13(21),16(20),17-octaene-14,3′-cyclopentane]-1′-yl]methanesulfonamide]?
**A.** EC50 (human Ox2R): 0.066 nM; Emax (human Ox2R): 97%; efflux ratio at 0.5 μM (P-gp (MDR1)): 2; Papp A→B at 0.5 μM (P-gp (MDR1)): 8.2 ×10⁻⁶ cm/s

**Q.** Which results are given for CS(=O)(=O)N[C@H]1CC[C@]2(CC1)Cc1ccc(F)c(c1)-c1cccc(F)c1OCc1ccnc2n1 [Example 108, trans-N-(6,20-difluorospiro[8-oxa-13,22-diazatetracyclo[15.3.1.110,14.02,7]docosa-1(21),2,4,6,10,12,14(22),17,19-nonaene-15,4′-cyclohexane]-1′-yl)methanesulfonamide]?
**A.** EC50 (human Ox2R): 0.45 nM; Emax (human Ox2R): 98%

**Q.** Which results are given for CS(=O)(=O)N[C@H]1CC[C@@]2(Cc3cc(c(F)cc3F)-c3cccc(F)c3OCc3nc2ns3)C1 [Example 111, N-[(1′S,14R)-6,17,19-trifluorospiro[8-oxa-11-thia-12,21-diazatetracyclo[14.3.1.110,13.02,7]henicosa-1(19),2,4,6,10(21),12,16(20),17-octaene-14,3′-cyclopentane]-1′-yl]methanesulfonamide]?
**A.** EC50 (human Ox2R): 0.98 nM; Emax (human Ox2R): 96%

**Q.** How did the EC50 (human Ox2R) turn out when CS(=O)(=O)N[C@H]1CC[C@@]2(Cc3ccc(F)c(c3)-c3cccc(F)c3OCc3noc2n3)C1 [Example 112, N-[(1′S,14R)-6,19-difluorospiro[8,12-dioxa-11,21-diazatetracyclo[14.3.1.110,13.02,7]henicosa-1(20),2,4,6,10,13(21),16,18-octaene-14,3′-cyclopentane]-1′-yl]methanesulfonamide] was run?
**A.** 1.3 nM

**Q.** What about the Emax (human Ox2R) of the same compound?
**A.** 94%

**Q.** For O=S(=O)(N[C@H]1CC[C@@]2(Cc3ccc(F)c(c3)-c3cccc(F)c3OCc3coc2n3)C1)C(F)(F)F [Example 114, N-[(1′S,14R)-6,19-difluorospiro[8,12-dioxa-21-azatetracyclo[14.3.1.110,13.02,7]henicosa-1(19),2(7),3,5,10,13(21),16(20),17-octaene-14,3′-cyclopentane]-1′-yl]-1,1,1-trifluoro-methanesulfonamide], which EC50 (human Ox2R) is on record?
**A.** 0.19 nM

**Q.** What about the Emax (human Ox2R) of the same compound?
**A.** 110%

**Q.** Which results are given for O=S(=O)(N[C@H]1CC[C@@]2(Cc3ccc(F)c(c3)-c3cccc(F)c3OCc3coc2n3)C1)C(F)F [Example 115, N-[(1′S,14R)-6,19-difluorospiro[8,12-dioxa-21-azatetracyclo[14.3.1.110,13.02,7]henicosa-1(20),2,4,6,10,13(21),16,18-octaene-14,3′-cyclopentane]-1′-yl]-1,1-difluoro-methanesulfonamide]?
**A.** EC50 (human Ox2R): 0.37 nM; Emax (human Ox2R): 97%

**Q.** For CS(=O)(=O)N[C@@H]1C[C@]2(Cc3ccc(F)c(c3)-c3cccc(F)c3OCc3ccnc2n3)[C@H]2C[C@@H]12 [Example 118, N-[(1′R,2′R,5′S,15R)-6,20-difluorospiro[8-oxa-13,22-diazatetracyclo[15.3.1.110,14.02,7]docosa-1(21),2,4,6,10,12,14(22),17,19-nonaene-15,4′-bicyclo[3.1.0]hexane]-2′-yl]methanesulfonamide], which EC50 (human Ox2R) is on record?
**A.** 0.1 nM

**Q.** And the Emax (human Ox2R)?
**A.** 100%

**Q.** What does the source list for CS(=O)(=O)N[C@@H]1C[C@]2(Cc3ccc(F)c(c3)-c3cc(F)cc(F)c3OCc3ccnc2n3)[C@H]2C[C@@H]12 [Example 119, N-[(1′R,2′R,5′S,15R)-4,6,20-trifluorospiro[8-oxa-13,22-diazatetracyclo[15.3.1.110,14.02,7]docosa-1(21),2,4,6,10,12,14(22),17,19-nonaene-15,4′-bicyclo[3.1.0]hexane]-2′-yl]methanesulfonamide]?
**A.** EC50 (human Ox2R): 0.52 nM; Emax (human Ox2R): 96%

**Q.** How did the EC50 (human Ox2R) turn out when “N-[(1′S,4′S,15R)-6,20-difluoro-4′-methyl-spiro[8-oxa-13,22-diazatetracyclo[15.3.1.110,14.02,7]docosa-1(20),2,4,6,10,12,14(22),17(21),18-nonaene-15,3′-cyclopentane]-1′-yl]methanesulfonamide or N-[(1′R,4′R,15S)-6,20-difluoro-4′-methyl-spiro[8-oxa-13,22-diazatetracyclo[15.3.1.110,14.02,7]docosa-1(20),2,4,6,10,12,14(22),17(21),18-nonaene-15,3′-cyclopentane]-1′-yl]methanesulfonamide [Example 93]” was run?
**A.** 3.1 nM

**Q.** And the “Emax (%)” value (human Ox2R)?
**A.** 94%

**Q.** Which EC50 (human Ox2R) does the source give for “N-[(3′R,14S)-6,17,19-trifluorospiro[8,12-dioxa-21-azatetracyclo[14.3.1.110,13.02,7]henicosa-1(19),2,4,6,10,13(21),16(20),17-octaene-1′,5′-tetrahydrofuran′-3′-yl]methanesulfonamide or N-[(3′S,14R)-6,17,19-trifluorospiro[8,12-dioxa-21-azatetracyclo[14.3.1.110,13.02,7]henicosa-1(19),2,4,6,10,13(21),16(20),17-octaene-1′,5′-tetrahydrofuran′-3′-yl]methanesulfonamide [Example 109]” here?
**A.** 1.6 nM

**Q.** What about the “Emax (%)” value (human Ox2R) of the same compound?
**A.** 99%

**Q.** Which results are given for “N-[(3′R,14S)-6,17,19-trifluorospiro[8,12-dioxa-21-azatetracyclo[14.3.1.110,13.02,7]henicosa-1(19),2,4,6,10,13(21),16(20),17-octaene-1′,5′-tetrahydrofuran′-3′-yl]methanesulfonamide or N-[(3′S,14R)-6,17,19-trifluorospiro[8,12-dioxa-21-azatetracyclo[14.3.1.110,13.02,7]henicosa-1(19),2,4,6,10,13(21),16(20),17-octaene-1′,5′-tetrahydrofuran′-3′-yl]methanesulfonamide [Example 110]”?
**A.** EC50 (human Ox2R): 0.32 nM; Emax (%) (human Ox2R): 96%
